Test results: ChEMBL document CHEMBL1201862, “PubChem BioAssay data set” (2004)
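Grown in 96-well plates, cells were treated for 48 hours with each compound at five concentrations. Insufficient inhibition: endpoint recorded as highest concentration tested. Abbreviation: GI50, concentration required for 50% inhibition of growth.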 Active and inactive are the calls of the source. Rule as the data show it: active = GI50 up to about 1.1 µM and inactive = higher.

Legend:
Experiment in all cases: NCI-60 cell line screen, 48 h
786-0 = test system: 786-0
A498 = test system: A498
A549 = test system: A549
HCC 2998 = test system: HCC 2998
HOP-62 = test system: HOP-62
HOP-92 = test system: HOP-92
KM12 = test system: KM12
LOX IMVI = test system: LOX IMVI
MDA-MB-435 = test system: MDA-MB-435
MDA-N = test system: MDA-N
MOLT-4 = test system: MOLT-4
Malme-3M = test system: Malme-3M
NCI/ADR-RES = test system: NCI/ADR-RES
RXF 393 = test system: RXF 393
SF-295 = test system: SF-295
SK-MEL-2 = test system: SK-MEL-2
SW-620 = test system: SW-620
TK-10 = test system: TK-10
UACC-257 = test system: UACC-257
UACC-62 = test system: UACC-62

Measured: GI50

C[C@]12CCC(=O)C=C1CC[C@@H]1[C@@H]2CC[C@]2(C)C(=O)/C(=C\c3ccccc3)C[C@@H]12
inactive: 786-0 26.1 µM | A498 15.6 µM | A549 22.6 µM | HCC 2998 17.4 µM | HOP-62 38.6 µM | HOP-92 23.2 µM | KM12 20.4 µM | LOX IMVI 21.2 µM | MDA-MB-435 24.9 µM | MDA-N 16 µM | MOLT-4 14 µM | Malme-3M 29.4 µM | NCI/ADR-RES 14 µM | RXF 393 41.1 µM | SF-295 29.9 µM | SK-MEL-2 11.7 µM | SW-620 22.8 µM | TK-10 44.7 µM | UACC-257 23.1 µM | UACC-62 23.4 µM

COc1cc2c(cc1OCCCC(=O)Nc1cc(C(=O)Nc3cc(C(=O)Nc4cc(C(=O)NCCCN(C)C)n(C)c4)n(C)c3)n(C)c1)N=C[C@@H]1CCCN1C2=O
active: 786-0 1.12 µM | LOX IMVI 0.933 µM
inactive: A498 13.2 µM | A549 11.2 µM | HCC 2998 14.2 µM | HOP-62 3.56 µM | HOP-92 1.88 µM | KM12 16.3 µM | MDA-MB-435 1.79 µM | MDA-N 1.84 µM | MOLT-4 3.2 µM | Malme-3M 1.82 µM | NCI/ADR-RES 2.22 µM | RXF 393 1.66 µM | SF-295 12.2 µM | SK-MEL-2 2.53 µM | SW-620 1.69 µM | TK-10 1.87 µM | UACC-257 1.97 µM | UACC-62 2.19 µM

O=C(O)c1cc2ccccc2c(S(=O)(=O)O)c1O
inactive: 786-0 > 100 µM | A498 > 100 µM | A549 > 100 µM | HCC 2998 > 100 µM | HOP-62 > 100 µM | HOP-92 > 100 µM | KM12 > 100 µM | LOX IMVI > 100 µM | MDA-MB-435 > 100 µM | MDA-N > 100 µM | MOLT-4 > 100 µM | Malme-3M > 100 µM | NCI/ADR-RES > 100 µM | RXF 393 > 100 µM | SF-295 > 100 µM | SK-MEL-2 > 100 µM | SW-620 > 100 µM | TK-10 > 100 µM | UACC-257 > 100 µM | UACC-62 > 100 µM

C=C(C)[C@@H]1CC[C@]2(C(=O)O)CC[C@]3(C)[C@H](CC[C@@H]4[C@@]5(C)CC[C@H](C(=O)/C=C/c6ccc(O)cc6)C(C)(C)[C@@H]5CC[C@]43C)[C@@H]12
inactive: 786-0 4.92 µM | A498 5.07 µM | A549 9.73 µM | HCC 2998 3.21 µM | HOP-62 8.39 µM | HOP-92 11.9 µM | KM12 3.29 µM | LOX IMVI 3.54 µM | MDA-MB-435 7.67 µM | MDA-N 4.72 µM | MOLT-4 2.85 µM | Malme-3M 13.5 µM | NCI/ADR-RES 3.22 µM | RXF 393 6.41 µM | SF-295 6.15 µM | SK-MEL-2 16.3 µM | SW-620 2.93 µM | TK-10 7.82 µM | UACC-257 3.58 µM | UACC-62 8.89 µM

O=C(Nc1ccc2ncccc2c1)Nc1ccc2ncccc2c1
inactive: 786-0 > 100 µM | A498 > 100 µM | A549 > 100 µM | HCC 2998 > 100 µM | HOP-62 > 100 µM | HOP-92 > 100 µM | KM12 > 100 µM | LOX IMVI > 100 µM | MDA-MB-435 > 100 µM | MDA-N > 100 µM | MOLT-4 > 100 µM | Malme-3M > 100 µM | NCI/ADR-RES > 100 µM | RXF 393 > 100 µM | SF-295 > 100 µM | SK-MEL-2 > 100 µM | SW-620 > 100 µM | TK-10 > 100 µM | UACC-257 > 100 µM | UACC-62 > 100 µM

OC(c1ccccc1)c1c(-c2ccccc2)[nH]c(-c2ccccc2)c1C(O)c1ccccc1 (stereo not given)
inactive: 786-0 4.38 µM | A498 3.79 µM | A549 3.73 µM | HCC 2998 7.24 µM | HOP-62 4.58 µM | HOP-92 2.19 µM | KM12 3.25 µM | LOX IMVI 2.19 µM | MDA-MB-435 3.18 µM | MDA-N 2.59 µM | MOLT-4 2.94 µM | Malme-3M 2.59 µM | NCI/ADR-RES 2.69 µM | RXF 393 2.88 µM | SF-295 3.75 µM | SK-MEL-2 1.95 µM | SW-620 4.9 µM | TK-10 4.44 µM | UACC-257 3.04 µM | UACC-62 2.84 µM

CC(C)C1SCc2nc3ccccc3n21 (stereo not given)
inactive: 786-0 84.9 µM | A498 30.1 µM | A549 37.9 µM | HCC 2998 78 µM | HOP-62 50.8 µM | HOP-92 16.3 µM | KM12 17.8 µM | LOX IMVI 35.4 µM | MDA-MB-435 28.8 µM | MDA-N 38.9 µM | MOLT-4 20 µM | Malme-3M 37.2 µM | NCI/ADR-RES 29.4 µM | RXF 393 39.6 µM | SF-295 30.5 µM | SK-MEL-2 29.8 µM | SW-620 65.8 µM | TK-10 38.5 µM | UACC-257 32.8 µM | UACC-62 35.1 µM

CC(C)[C@H](NC(=O)OCc1ccccc1)C(=O)N[C@H](/C=C/C(=O)OC(C)(C)C)CO
inactive: 786-0 65.6 µM | A498 > 100 µM | A549 > 100 µM | HCC 2998 > 100 µM | HOP-62 > 100 µM | HOP-92 > 100 µM | KM12 > 100 µM | LOX IMVI > 100 µM | MDA-MB-435 > 100 µM | MDA-N > 100 µM | MOLT-4 > 100 µM | Malme-3M > 100 µM | NCI/ADR-RES > 100 µM | RXF 393 > 100 µM | SF-295 > 100 µM | SK-MEL-2 > 100 µM | SW-620 92.9 µM | TK-10 > 100 µM | UACC-257 > 100 µM | UACC-62 > 100 µM

C=CCOc1ccc(C(=N/NC(=O)c2ccccc2)/N=N/c2ccccc2)cc1OC
inactive: 786-0 > 100 µM | A498 > 100 µM | A549 > 100 µM | HCC 2998 37.5 µM | HOP-62 > 100 µM | HOP-92 30.1 µM | KM12 54.2 µM | LOX IMVI 42.1 µM | MDA-MB-435 > 100 µM | MDA-N > 100 µM | MOLT-4 42.6 µM | Malme-3M > 100 µM | NCI/ADR-RES 84.3 µM | RXF 393 > 100 µM | SF-295 > 100 µM | SK-MEL-2 > 100 µM | SW-620 > 100 µM | TK-10 > 100 µM | UACC-257 > 100 µM | UACC-62 71.1 µM

O=C1CN2CCN(CC2)CC(=O)Nc2ccc(cc2)S(=O)(=O)c2ccc(cc2)NC(=O)CN2CCN(CC2)CC(=O)Nc2ccc(cc2)S(=O)(=O)c2ccc(cc2)N1
inactive: 786-0 33.3 µM | A498 > 100 µM | A549 > 63.2 µM | HCC 2998 > 61.9 µM | HOP-62 44.4 µM | HOP-92 > 100 µM | KM12 32.2 µM | LOX IMVI 11 µM | MDA-MB-435 35.2 µM | MDA-N 41.8 µM | MOLT-4 6.81 µM | Malme-3M 15.8 µM | NCI/ADR-RES 37.3 µM | RXF 393 55.2 µM | SF-295 > 88.7 µM | SK-MEL-2 > 71.1 µM | SW-620 14.1 µM | TK-10 > 92.7 µM | UACC-257 > 100 µM | UACC-62 40.1 µM

O=C(Cc1nc2ccccc2[nH]c1=O)c1c[nH]c2ccccc12
inactive: 786-0 13.9 µM | A498 14.7 µM | A549 10.9 µM | HCC 2998 13.3 µM | HOP-62 21 µM | HOP-92 23.2 µM | KM12 5.77 µM | LOX IMVI 13.7 µM | MDA-MB-435 13.7 µM | MDA-N 12.1 µM | MOLT-4 6.01 µM | Malme-3M 32.9 µM | NCI/ADR-RES 8.65 µM | RXF 393 17.5 µM | SF-295 9.04 µM | SK-MEL-2 10.1 µM | SW-620 24.9 µM | TK-10 7.57 µM | UACC-257 23.8 µM | UACC-62 13.6 µM

CC(=O)OCC1OC(n2c(C)c(C(C)=O)c(-c3ccc(Cl)cc3)c(C#N)c2=S)C(OC(C)=O)C(OC(C)=O)C1OC(C)=O (stereo not given)
inactive: 786-0 > 100 µM | A498 > 100 µM | A549 > 100 µM | HCC 2998 > 100 µM | HOP-62 > 100 µM | HOP-92 > 100 µM | KM12 > 100 µM | LOX IMVI > 100 µM | MDA-MB-435 > 100 µM | MDA-N > 100 µM | MOLT-4 > 100 µM | Malme-3M > 100 µM | NCI/ADR-RES > 100 µM | RXF 393 > 100 µM | SF-295 > 100 µM | SK-MEL-2 > 100 µM | SW-620 > 100 µM | TK-10 > 100 µM | UACC-257 > 100 µM | UACC-62 > 100 µM

COc1ccc(C(=O)c2ccc(-n3cc(/C=C/[N+](=O)[O-])c4ccccc43)cc2)cc1
inactive: 786-0 3.52 µM | A498 22.4 µM | A549 80.4 µM | HCC 2998 20.9 µM | HOP-62 16.1 µM | HOP-92 17.9 µM | KM12 20.7 µM | LOX IMVI 6.55 µM | MDA-MB-435 16.2 µM | MDA-N 22.8 µM | MOLT-4 4.81 µM | Malme-3M 20.2 µM | NCI/ADR-RES 24.3 µM | RXF 393 5.45 µM | SF-295 47.9 µM | SK-MEL-2 23.1 µM | SW-620 3.69 µM | TK-10 6.3 µM | UACC-257 10.2 µM | UACC-62 14.4 µM
